This note sets out measurements from US10105339B2, “Ingenol derivatives in the reactivation of latent HIV” (priority 2012, dated 2018).

Experiment [1] relates to HIV-1 latent virus in PBMC cells of patient. Description: Activation of latent HIV in PBMC from patient under anti-retroviral treatment (semi-nested real time PCR of intracellular vRNA). In kind it is cell-based. The following applies: 72 hours. The procedure:
It was tested, in this experiment, the ability of ingenol derivative, of formula I, wherein Z=Z2, mentioned as B, of activating latent cells from patients who were already under anti-retroviral treatment for more than 1 year with undetectable viral load. A patient (identified as MLV) was selected, which had already been under treatment with zidovudine+lamivudine (AZT+3TC) and efavirenz for over 14 months, with undetectable viral load and CD4>500 cells/mm^3. 20 mL of blood was collected from the patient in a EDTA (ethylene diamine tetra acetic acid) tube and PBMC cells were isolated, which were placed in RPMI culture medium with 10% fetal bovine serum and 50 IU/mL of IL2 (interleukin 2), and grown in 2 bottles with 5 mL of identical cells (106/mL) with different selective compositions. 10 μM efavirenz (antiviral) was added to the control bottle to block viral replication that would eventually arise from cultured cells. In another test bottle both efavirenz (10 μM) and the B derivative of the invention (1 μM) were included. […]
For orientation: Real-time PCR tracks product formation cycle by cycle.

For experiment [2], the system named is CD4 HIV-1 receptor. Description: Downregulation of CD4 receptor on human lymphocytes and monocytes/macrophages (flow cytometry). In kind it is cell-based. To be noted: summary statement for lymphocytes and monocytes/macrophages (human and monkey cells tested). The text has this:
It is verified in this test that ingenol derivatives of formula 1, when Z=Z2, at concentrations that activate HIV from latency in Jlat cells in example 3, downregulate the expression of CD4 cell receptor on the surface of HIV-human and SIV-pig-tail monkey CD4+T lymphocytes and macrophages. For this experiment PBMC cells from human and monkeys were isolated from peripheral blood with isolation through Ficoll-Hypaque density gradient (mixture of high density hydrophilic neutral polysaccharides that readily dissolves in aqueous solution. “Ficoll” is a trademark of GE Healthcare Bio-Sciences, USA). Thus, PBMC cells from human and monkeys, at concentration of 10^6 cells/mL, were cultured in RPMI medium with 10% fetal bovine serum for 24 hours and adhered cells (monocytes differentiating into macrophages) were separated from the cell supernatant which contained total lymphocytes. Those two distinct populations of cells were exposed to different concentrations of A, B and C derivatives of the invention, and left in culture for 72 hours. After exposure, the cells were stained with specific lymphocyte monoclonals (anti-CD3) and monocytes/macrophages (anti-CD14) simultaneously with an anti-CD4. Thus, the cells were centrifuged at 1000 G for 3 minutes and washed with the same PBS volume (without Ca^2+ and Mg^2+, Cat. No. 9240, Irvine Scientific, USA) containing 2% fetal bovine serum. This wash was repeated 3 times and the cells were suspended in 1×PBS containing a 1/1000 dilution of relevant antibodies and left to incubate for 30 min at 4° C. until being read in flow cytometry. After incubation, 30,000 cells were read in a BD-Excalibur flow cytometer (from Beckton Dickinson and co., USA) and the populations were separated and the CD4 receptor density was estimated at different concentrations of the B derivative, assuming cell density without B derivative as 100%. […]

With `O=C1Nc2ccc(Cl)cc2[C@@](C#CC2CC2)(C(F)(F)F)O1` [efavirenz, reference compound], in experiment [1] (10 μM efavirenz alone (control bottle), FIG. 7), the “intracellular HIV-1 vRNA” value is reported as “did not produce intracellular vRNA”. Take `CCCCCC(=O)OC1C(C)=CC23C(=O)C(C=C(CO)C(O)C12O)C1C(CC3C)C1(C)C` (centres unmarked) [B, Ingenol 3-caproate]: the “downregulation of the main HIV receptor (CD4) on the surface of infection targeted cells” value (from here on “downregulation of the main HIV receptor”) in experiment [2] is given as “able to downregulate”. The “intracellular HIV-1 vRNA” value in experiment [1] (1 μM B derivative plus 10 μm efavirenz, FIG. 8) is listed as “emergence of intracellular HIV-1 vRNA”. For the compound `CC1=CC23C(=O)C(C=C(CO)C(O)C2(O)C1OC(=O)/C=C/c1ccccc1)C1C(CC3C)C1(C)C` (centres unmarked) [A, Ingenol 3-cinnamate], the “downregulation of the main HIV receptor” value in experiment [2] is listed as “able to downregulate”. As to `CCCCCCCCCCCC(=O)OC1C(C)=CC23C(=O)C(C=C(CO)C(O)C12O)C1C(CC3C)C1(C)C` (centres unmarked) [C, ingenol 3-dodecanoate], the “downregulation of the main HIV receptor” value in experiment [2] was “able to downregulate”.
